This passage reports selectivity ratio, IC50 and inhibition results from ChEMBL document CHEMBL4613311, “Synthesis of Novel G Factor or Chloroquine-Artemisinin Hybrids and Conjugates with Potent Antiplasmodial Activity” (ACS Med Chem Lett, 2020).

Broadly, the IC50 is the midpoint of a concentration-inhibition curve. A high value points to weaker potency. Broadly, the inhibition is the relative decrease from the control value, in per cent.

The nature of series [1]: Selectivity index, ratio of IC50 for human AB943 cells to IC50 for antiplasmodial activity against chloroquine resistant Plasmodium falciparum FcB1/Colombia infected in human erythrocytes. The format is toxicity, cell-based. Particulars: read-out: Ratio IC50.
The subject of series [2] is Plasmodium falciparum. Put plainly: Antiplasmodial activity against chloroquine resistant Plasmodium falciparum FcB1/Columbia infected in human erythrocytes preincubated for 24 hrs followed by [3H]-hypoxanthine addition and measured after 24 hrs by liquid scintillation analysis. The format is functional, organism-based.
Series [3] relates to Plasmodium falciparum. Description: Antiplasmodial activity against chloroquine resistant Plasmodium falciparum FcB1/Columbia infected in human erythrocytes at 10 nM preincubated for 24 hrs followed by [3H]-hypoxanthine addition and measured after 24 hrs by liquid scintillation analysis relative to control. The format is functional.

Some results are limits rather than exact numbers.

For `COC12OOC3(C=C1C(=O)C(C)(C)C(=O)C2(C)C)CCN(C(=O)CCC(=O)N(CCCCNC(=O)CC[C@H]1O[C@@H]2O[C@@]4(C)CC[C@H]5[C@H](C)CC[C@@H]([C@H]1C)[C@@]25OO4)CCCCNC(=O)CC[C@H]1O[C@@H]2O[C@@]4(C)CC[C@H]5[C@H](C)CC[C@@H]([C@H]1C)[C@@]25OO4)CC3` (stereo partly drawn), in series [1], the selectivity ratio is 983. Also, in series [2], half-maximal inhibition (IC50) was put at 10.6 nM.

As for `COC12OOC3(C=C1C(=O)C(C)(C)C(=O)C2(C)C)CCN(C(=O)CCC(=O)NCC[C@H]1O[C@@H]2O[C@@]4(C)CC[C@H]5[C@H](C)CC[C@@H]([C@H]1C)[C@@]25OO4)CC3` (stereo partly drawn), the selectivity ratio in series [1] is 144. In series [2], this molecule returned an IC50 of 124 nM.

Take `COC12OOC3(C=C1C(=O)C(C)(C)C(=O)C2(C)C)CCN(C(=O)CCC(=O)NCCCCN(CCCCNC(=O)CCC(=O)N1CCC2(C=C4C(=O)C(C)(C)C(=O)C(C)(C)C4(OC)OO2)CC1)C(=O)CCC(=O)NCCNc1ccnc2cc(Cl)ccc12)CC3` (stereo not drawn): in series [2], the IC50 was greater than 167 nM.

In series [3], `C[C@H]1[C@@H](CCC(=O)N2CCN(c3ccnc4cc(Cl)ccc34)CC2)O[C@@H]2O[C@@]3(C)CC[C@H]4[C@H](C)CC[C@@H]1[C@@]24OO3` showed an inhibition at 0.01 µM of 11%.

Regarding `C[C@@H]1CC[C@H]2[C@@H](C)C(=O)O[C@@H]3O[C@@]4(C)CC[C@@H]1[C@]32OO4` [ARTEMISININ], the selectivity ratio in series [1] was greater than 4540. Further, half-maximal inhibition in series [2] (IC50) was put at 55 nM.

The molecule `C[C@H]1[C@@H](CCC(=O)NCCCCN(CCCNC(=O)CC[C@H]2O[C@@H]3O[C@@]4(C)CC[C@H]5[C@H](C)CC[C@@H]([C@H]2C)[C@@]35OO4)C(=O)CCC(=O)NCCNc2ccnc3cc(Cl)ccc23)O[C@@H]2O[C@@]3(C)CC[C@H]4[C@H](C)CC[C@@H]1[C@@]24OO3` gave an inhibition at 0.01 µM in series [3] of 33%.

As to `COC12OOC3(C=C1C(=O)C(C)(C)C(=O)C2(C)C)CCN(C(=O)CCC(=O)NCCCCN(CCCNC(=O)CCC(=O)N1CCC2(C=C4C(=O)C(C)(C)C(=O)C(C)(C)C4(OC)OO2)CC1)C(=O)CCC(=O)NCCNc1ccnc2cc(Cl)ccc12)CC3` (stereo not drawn), in series [2], the half-maximal inhibitory concentration (IC50) is greater than 167 nM.

`C[C@H]1[C@@H](CCC(=O)NCCCCN(CCCCNC(=O)CC[C@H]2O[C@@H]3O[C@@]4(C)CC[C@H]5[C@H](C)CC[C@@H]([C@H]2C)[C@@]35OO4)C(=O)CCC(=O)NCCNc2ccnc3cc(Cl)ccc23)O[C@@H]2O[C@@]3(C)CC[C@H]4[C@H](C)CC[C@@H]1[C@@]24OO3`: the selectivity ratio in series [1] came out at 328. The IC50 in series [2] is 52.3 nM.

With `COC12OOC3(C=C1C(=O)C(C)(C)C(=O)C2(C)C)CCN(C(=O)CCC(=O)N(CCCCNC(=O)CC[C@H]1O[C@@H]2O[C@@]4(C)CC[C@H]5[C@H](C)CC[C@@H]([C@H]1C)[C@@]25OO4)CCCNC(=O)CC[C@H]1O[C@@H]2O[C@@]4(C)CC[C@H]5[C@H](C)CC[C@@H]([C@H]1C)[C@@]25OO4)CC3` (stereo partly drawn), in series [1], the selectivity ratio was 2110. The molecule further displayed an IC50 in series [2] of 8.4 nM.

In turn, `C[C@H]1[C@@H](CCC(=O)NCCNc2ccnc3cc(Cl)ccc23)O[C@@H]2O[C@@]3(C)CC[C@H]4[C@H](C)CC[C@@H]1[C@@]24OO3` had an inhibition at 0.01 µM in series [3] of 11%.

Consider `COC12OOC3(C=C1C(=O)C(C)(C)C(=O)C2(C)C)CCNCC3` (stereo not drawn), for which the IC50 in series [2] is greater than 250 nM.

In the case of `COC12OOC3(C=C1C(=O)C(C)(C)C(=O)C2(C)C)CCN(C(=O)CC[C@H]1O[C@@H]2O[C@@]4(C)CC[C@H]5[C@H](C)CC[C@@H]([C@H]1C)[C@@]25OO4)CC3` (stereo partly drawn), in series [1], the selectivity ratio was 16400. The molecule also registered a 50% inhibitory concentration (IC50) in series [2] of 2.6 nM.
